Measured values taken from patent publication US7538182B2, “Polypeptide and protein derivatives and process for their preparation” (Amylin Pharmaceuticals, Inc., priority 1986, dated 2009).

What was measured:
[1] = Removal of iron with propionic acid/EDTA, followed by spectroscopy (loss of the 400-450 nm peak); assay type: physicochemical; conditions: test solution of 1 mM ferrioxamine B
Source text: The pink colour of the solution was rapidly lost. If desired the reaction can be followed spectroscopically, since after removal of iron the peak between 400 nm and 450 nm, characteristic of the ferrioxamine B conjugate will disappear completely.

[2] = assay type: physicochemical
Source text: Once the iron had been removed, the solution was adjusted to pH 5.5 with 1.7 M sodium acetate buffer. The resulting precipitate was carefully washed by centrifugation in 0.7 M sodium acetate buffer, until the residual EDTA concentration could be expected to be negligible compared to that of the conjugate.

| Molecule | rate of the removal of iron ([1]; pH 2.5) | half-time for the removal of iron ([1]; pH 3) | half-time for the removal of iron ([1]; pH 3.5) | storage stability (capacity to be labelled) [2] |
| --- | --- | --- | --- | --- |
| CC(=O)N([O-])CCCCCNC(=O)CCC(=O)N([O-])CCCCCNC(=O)CCC(=O)N([O-])CCCCCN.[Fe+3] [ferrioxamine B] | too rapid to follow | approximately 90 seconds | approximately 340 sec |  |
| des-Ala^B30-insulin/desferrioxamine B conjugate [iron-free protein derivative] |  |  |  | without apparent impairment |
